From US6737383B1, “Herbicidal oxadiazolidines” (priority 1999, dated 2004)

Assays:
crabgrass = assay: Test B pre/postemergence crabgrass; assay type: in vivo, Digitaria sanguinalis
Outline: (§1)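 Test chemicals in a non-phytotoxic solvent mixture with surfactant were sprayed preemergence onto planted seeds and postemergence onto plants 2 to 18 cm tall (1- to 4-leaf stage). After twelve to sixteen days in a greenhouse, injury was visually rated against untreated controls from 0 (no effect) to 10 (complete control).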

soybean = assay: Test B pre/postemergence soybean; assay type: in vivo, Glycine max
Outline: as §1

giant foxtail = assay: Test B pre/postemergence giant foxtail; assay type: in vivo, Setaria faberii
Outline: as §1

morningglory = assay: Test B pre/postemergence morningglory; assay type: in vivo, Ipomoea hederacea
Outline: as §1

cocklebur = assay: Test B pre/postemergence cocklebur; assay type: in vivo, Xanthium strumarium
Outline: as §1

blackgrass = assay: Test B pre/postemergence blackgrass; assay type: in vivo, Alopecurus myosuroides
Outline: as §1

surinam grass = assay: Test B pre/postemergence surinam grass; assay type: in vivo, Brachiaria decumbens
Outline: as §1

wild oat = assay: Test B pre/postemergence wild oat; assay type: in vivo, Avena fatua
Outline: as §1

rape = assay: Test B pre/postemergence rape; assay type: in vivo, Brassica napus
Outline: as §1

sugar beet = assay: Test B pre/postemergence sugar beet; assay type: in vivo, Beta vulgaris
Outline: as §1

velvetleaf = assay: Test B pre/postemergence velvetleaf; assay type: in vivo, Abutilon theophrasti
Outline: as §1

wheat = assay: Test B pre/postemergence wheat; assay type: in vivo, Triticum aestivum
Outline: as §1

pigweed = assay: Test B pre/postemergence pigweed; assay type: in vivo, Amaranthus retroflexus
Outline: as §1

bedstraw = assay: Test B pre/postemergence bedstraw; assay type: in vivo, Galium aparine; conditions: Preemergence; for Bedstraw plant response rating: scale 0 to 10, 0 is no effect, 10 is complete control
Outline: as §1

corn = assay: Test B pre/postemergence corn; assay type: in vivo, Zea mays
Outline: as §1

purple nutsedge = assay: Test B pre/postemergence purple nutsedge; assay type: in vivo, Cyperus rotundus
Outline: as §1

[1] = Postemergence, Rate 62 g/ha, scale of 0 to 10, 0 is no effect, 10 is complete control
[2] = Postemergence, Rate 125 g/ha, scale 0 to 10, 0 is no effect, 10 is complete control
[3] = Postemergence, Rate 250 g/ha, scale 0 to 10
[4] = Postemergence, Rate 500 g/ha, scale 0 to 10, 0 is no effect, 10 is complete control
[5] = Preemergence, Rate 62 g/ha, scale of 0 to 10 where 0 is no effect and 10 is complete control
[6] = Preemergence, Rate 125 g/ha, scale 0 to 10, 0 is no effect, 10 is complete control
[7] = Preemergence, Rate 500 g/ha, scale of 0 to 10 where 0 is no effect and 10 is complete control
[8] = Preemergence, Rate 250 g/ha, scale 0 to 10, 0 is no effect, 10 is complete control

With `Cc1noc(C)c1Cn1c(=O)on(C(=O)N(c2ccc(F)cc2F)C(C)C)c1=O` [Compound 510] the “Crabgrass plant response rating” value (crabgrass; [1]) was 3, the “Crabgrass plant response rating” value (crabgrass; [2]) was 8 and the “Crabgrass plant response rating” value (crabgrass; [3]) was 8. The “Plant response rating, Crabgrass” value (crabgrass; [4]) was 9, the “Plant response rating, Crabgrass” value (crabgrass; [5]) was 5 and the “Crabgrass plant response rating” value (crabgrass; [6]) was 9. The “Crabgrass plant response rating” value (crabgrass; [7]) was 9, the “Soybean plant response rating” value (soybean; [1]) was 4 and the “Soybean plant response rating” value (soybean; [2]) was 7. For the same compound, the “Plant response rating, Soybean” value (soybean; [4]) was 8, the “Plant response rating, Soybean” value (soybean; [5]) was 0 and the “Soybean plant response rating” value (soybean; [6]) was 0. For the same compound, the “Soybean plant response rating” value (soybean; [7]) was 0, the “Giant foxtail plant response rating” value (giant foxtail; [1]) was 4 and the “Giant foxtail plant response rating” value (giant foxtail; [2]) was 6. The “Plant response rating, Giant foxtail” value (giant foxtail; [4]) was 9, the “Plant response rating, Giant foxtail” value (giant foxtail; [5]) was 9 and the “Giant foxtail plant response rating” value (giant foxtail; [6]) was 9. The “Giant foxtail plant response rating” value (giant foxtail; [7]) was 10, the “Morningglory plant response rating” value (morningglory; [1]) was 4 and the “Morningglory plant response rating” value (morningglory; [2]) was 5. For the same compound, the “Plant response rating, Morningglory” value (morningglory; [4]) was 6, the “Plant response rating, Morningglory” value (morningglory; [5]) was 0 and the “Morningglory plant response rating” value (morningglory; [6]) was 0. For the same compound, the “Morningglory plant response rating” value (morningglory; [7]) was 5, the “Cocklebur plant response rating” value (cocklebur; [1]) was 3 and the “Cocklebur plant response rating” value (cocklebur; [2]) was 3. The “Cocklebur plant response rating” value (cocklebur; [3]) was 4, the “Plant response rating, Cocklebur” value (cocklebur; [4]) was 4 and the “Plant response rating, Cocklebur” value (cocklebur; [5]) was 0. For the same compound, the “Cocklebur plant response rating” value (cocklebur; [6]) was 0, the “Cocklebur plant response rating” value (cocklebur; [7]) was 0 and the “Blackgrass plant response rating” value (blackgrass; [1]) was 5. The “Blackgrass plant response rating” value (blackgrass; [2]) was 5, the “Blackgrass plant response rating” value (blackgrass; [3]) was 5 and the “Plant response rating, Blackgrass” value (blackgrass; [4]) was 6. For the same compound, the “Plant response rating, Blackgrass” value (blackgrass; [5]) was 6, the “Blackgrass plant response rating” value (blackgrass; [6]) was 6 and the “Blackgrass plant response rating” value (blackgrass; [8]) was 7. The “Blackgrass plant response rating” value (blackgrass; [7]) was 8, the “B. signalgrass plant response rating” value (surinam grass; [1]) was 2 and the “B. signalgrass plant response rating” value (surinam grass; [2]) was 4. The “B. signalgrass plant response rating” value (surinam grass; Postemergence, Rate 250 g/ha, scale 0 to 10, 0 no effect, 10 complete control) was 4, the “Plant response rating, B. signalgrass” value (surinam grass; [4]) was 6 and the “Plant response rating, B. signalgrass” value (surinam grass; [5]) was 7. The “B. signalgrass plant response rating” value (surinam grass; [6]) was 7, the “B. signalgrass plant response rating” value (surinam grass; [8]) was 8 and the “B. signalgrass plant response rating” value (surinam grass; Preemergence, Rate 500 g/ha, scale 0 to 10, 0 is no effect, 10 is complete control) was 9. The “Wild oats plant response rating” value (wild oat; [1]) was 0, the “Wild oats plant response rating” value (wild oat; [2]) was 0 and the “Plant response rating, Wild oats” value (wild oat; [4]) was 5. The “Plant response rating, Wild oats” value (wild oat; [5]) was 4, the “Wild oats plant response rating” value (wild oat; [6]) was 6 and the “Wild oats plant response rating” value (wild oat; [7]) was 7. The “Rape plant response rating” value (rape; [1]) was 1, the “Rape plant response rating” value (rape; [2]) was 4 and the “Plant response rating, Rape” value (rape; [4]) was 9. The “Plant response rating, Rape” value (rape; [5]) was 2, the “Rape plant response rating” value (rape; [6]) was 5 and the “Rape plant response rating” value (rape; [7]) was 9. For the same compound, the “Sugarbeets plant response rating” value (sugar beet; [1]) was 2, the “Sugarbeets plant response rating” value (sugar beet; [2]) was 4 and the “Plant response rating, Sugarbeets” value (sugar beet; [4]) was 8. The “Plant response rating, Sugarbeets” value (sugar beet; [5]) was 0, the “Sugarbeets plant response rating” value (sugar beet; [6]) was 0 and the “Sugarbeets plant response rating” value (sugar beet; [7]) was 7. For the same compound, the “Velvetleaf plant response rating” value (velvetleaf; [1]) was 4, the “Velvetleaf plant response rating” value (velvetleaf; [2]) was 4 and the “Plant response rating, Velvetleaf” value (velvetleaf; [4]) was 7. For the same compound, the “Plant response rating, Velvetleaf” value (velvetleaf; [5]) was 1, the “Velvetleaf plant response rating” value (velvetleaf; [6]) was 2 and the “Velvetleaf plant response rating” value (velvetleaf; [7]) was 6. The “Wheat plant response rating” value (wheat; [1]) was 0, the “Wheat plant response rating” value (wheat; [2]) was 0 and the “Plant response rating, Wheat” value (wheat; [4]) was 3. For the same compound, the “Plant response rating, Wheat” value (wheat; [5]) was 0, the “Wheat plant response rating” value (wheat; [6]) was 0 and the “Wheat plant response rating” value (wheat; [7]) was 0. For the same compound, the “Redroot pigweed plant response rating” value (pigweed; [1]) was 7, the “Redroot pigweed plant response rating” value (pigweed; [2]) was 7 and the “Plant response rating, Redroot pigweed” value (pigweed; [5]) was 7. The “Redroot pigweed plant response rating” value (pigweed; [6]) was 9, the “Redroot pigweed plant response rating” value (pigweed; [7]) was 10 and the “Plant response rating, Bedstraw” value (bedstraw; Rate 62 g/ha, scale of 0 to 10 where 0 is no effect and 10 is complete control) was 0. For the same compound, the “Bedstraw plant response rating” value (bedstraw; Rate 125 g/ha) was 0, the “Bedstraw plant response rating” value (bedstraw; Rate 250 g/ha) was 0 and the “Bedstraw plant response rating” value (bedstraw; Rate 500 g/ha) was 4. For the same compound, the “Corn plant response rating” value (corn; [1]) was 0, the “Corn plant response rating” value (corn; [2]) was 0 and the “Corn plant response rating” value (corn; [3]) was 0. The “Plant response rating, Corn” value (corn; [4]) was 0, the “Plant response rating, Corn” value (corn; [5]) was 0 and the “Corn plant response rating” value (corn; [6]) was 0. The “Corn plant response rating” value (corn; [7]) was 5, the “Nutsedge plant response rating” value (purple nutsedge; [2]) was 0 and the “Plant response rating, Nutsedge” value (purple nutsedge; [4]) was 0. The “Plant response rating, Nutsedge” value (purple nutsedge; [5]) was 0, the “Nutsedge plant response rating” value (purple nutsedge; [6]) was 0 and the “Nutsedge plant response rating” value (purple nutsedge; [7]) was 0.
